Patent US9212175B2, “Pharmaceutical hypocholesterolemic compositions” (Lipideon Biotechnology AG, priority 2009, dated 2015)

Experiments:
C56BL/6 mice = test: Acute cholesterol absorption inhibition assay in mice; type: in vivo; conditions: [3H]-cholesterol counts in plasma 2 h after cholesterol, relative to vehicle control
Method: Accute Cholesterol Absorption Inhibition Assay in Mice
Compounds were added to a solution of 0.5% Methylcellulose (Sigma)/5% Solutol, BASF) or another suitable vehicle at a concentration of 0.1-1 mg/ml. C56BL/6 mice (n=3-6/group), aged 6-8 weeks were dosed orally with 0.1 ml of vehicle or 0.1 mL of vehicle containing the test compound (0.5-5 mg/kg) or ezetimibe (10 mg/kg) as positive control. Thirty minutes later all of the mice were dosed orally with 0.1 mL corn oil containing 2 μCi [^3H]-cholesterol per mouse. Two hours after administration of radiolabeled cholesterol, the animals were euthanized and blood collected. Cholesterol counts in plasma were determined, and percent inhibition of cholesterol absorption was calculated relative to the vehicle control.

[1] = Determination of absorption: unidirectional permeability assay (Cloe Screen, Cyprotex); type: in vitro ADME; conditions: human, Caco-2, apical side, cell monolayer, read-out: Papp in cm · s^−1
Method: It has further been shown that the compounds of the invention display the desired pharmacological activity by evaluation of their potency in vivo (in mice and hamsters). The bioavailability of the compounds of the present invention has been determined by unidirectional Caco2 Permeability measurement.
Determination of Absorption
The permeability of the compounds of the present invention was determined using the Cloe Screen® (unidirectional Cloe Screen […] permeability assay; Cyprotex) and is expressed by Papp (cm·s^−1). Caco-2 cells are widely used as an in vitro model for predicting human drug absorption. The Caco-2 cell line is derived from a human colorectal carcinoma, and when cultured, the cells spontaneously differentiate into monolayers of polarised enterocytes. The cells are typically seeded on Transwell™ plates and form a confluent monolayer over 20 days prior to the experiment. On day 20, the test compound is added to the apical side of the membrane and the transport of the compound across the monolayer is monitored over a 2 hour time period. The permeability coefficient (Papp) is calculated from the equation: Papp=(dQ/dt)/(C0xA), where (dQ/dt) is the rate of permeation of the drug across the cells, C0 is the donor compartment concentration at time zero and A is the area of the cell monolayer.

Syrian Golden Hamsters = test: Long-term LDL lowering in Syrian Golden hamsters; type: in vivo; conditions: hamsters on high fat diet, dose 3 × 1 mg/kg/day, day 14, relative to vehicle control
Method: Long-Term LDL Lowering in Syrian Golden Hamsters
Groups of 6 male hamsters weighing 90±10 g are fed a high fat diet (g/100 g: corn oil, 5; coconut oil, 5; cholesterol, 0.2; standard chow, 89.8) for 7 days. Afterwards vehicle or test compounds (3-10 mg/kg bw/day) in a solution of 0.5% Methylcellulose, 5% Solutol or another suitable vehicle are administered at least three times daily for 14 consecutive days. Following an overnight fasting period, blood serum is obtained from the retro-orbital sinus of each animal on day 0 (7 days after initiating of the high fat diet) and on days 8 and 15 after dosing for 7 and 14 days. The serum is assayed for total cholesterol, LDL-cholesterol, HDL-cholesterol and triglycerides. The percent change of treated relative to the vehicle control group is determined.

SMILES | Cholesterol Absorption Inhibition (%) (C56BL/6 mice; oral dose 1 mg/kg) | Papp A→B at 2 h [1] | LDL reduction @ day 14 (%) (Syrian Golden Hamsters) | Cholesterol Absorption Inhibition (%) (C56BL/6 mice; oral dose 10 mg/kg (positive control))
O=C(O)[C@H]1CCCN1C(=O)COC1(CCc2ccc([C@@H]3[C@@H](CC[C@H](O)c4ccc(F)cc4)C(=O)N3c3ccc(F)cc3)cc2)COC1 [Example 19, (R)-1-(2-(3-(4-((2S,3R)-1-(4-fluorophenyl)-3-((S)-3-(4-fluorophenyl)-3-hydroxypropyl)-4-oxoazetidin-2-yl)phenethyl)oxetan-3-yloxy)acetyl)pyrrolidine-2-carboxylic acid] | 83% | 0.14 ×10⁻⁶ cm/s | – | –
NC(=O)[C@H]1CCCN1C(=O)COC1(CCc2ccc([C@@H]3[C@@H](CC[C@H](O)c4ccc(F)cc4)C(=O)N3c3ccc(F)cc3)cc2)COC1 [Example 22, (R)-1-(2-(3-(4-((2S,3R)-1-(4-fluorophenyl)-3-((S)-3-(4-fluorophenyl)-3-hydroxypropyl)-4-oxoazetidin-2-yl)phenethyl)oxetan-3-yloxy)acetyl)pyrrolidine-2-carboxamide] | 80% | – | – | –
O=C(O)COC1(CCc2ccc([C@@H]3[C@@H](CC[C@H](O)c4ccc(F)cc4)C(=O)N3c3ccc(F)cc3)cc2)COC1 [Example 1, 2-(3-(4-((2S,3R)-1-(4-fluorophenyl)-3-((S)-3-(4-fluorophenyl)-3-hydroxypropyl)-4-oxoazetidin-2-yl)phenethyl)oxetan-3-yloxy)acetic acid] | 87% | 1.68 ×10⁻⁶ cm/s | – | –
O=C(O)C1CCCCN1C(=O)COC1(CCc2ccc([C@@H]3[C@@H](CC[C@H](O)c4ccc(F)cc4)C(=O)N3c3ccc(F)cc3)cc2)COC1 (stereo partly drawn) [Example 23, 1-(2-(3-(4-((2S,3R)-1-(4-fluorophenyl)-3-((S)-3-(4-fluorophenyl)-3-hydroxypropyl)-4-oxoazetidin-2-yl)phenethyl)oxetan-3-yloxy)acetyl)piperidine-2-carboxylic acid] | 73% | – | – | –
O=C(COC1(CCc2ccc([C@@H]3[C@@H](CC[C@H](O)c4ccc(F)cc4)C(=O)N3c3ccc(F)cc3)cc2)COC1)N[C@H](CO)C(=O)O [Example 34, (R)-2-(2-(3-(4-((2S,3R)-1-(4-fluorophenyl)-3-((S)-3-(4-fluorophenyl)-3-hydroxypropyl)-4-oxoazetidin-2-yl)phenethyl)oxetan-3-yloxy)acetamido)-3-hydroxypropanoic acid] | – | 0.57 ×10⁻⁶ cm/s | 76% | –
CC(C)[C@@H](NC(=O)COC1(CCc2ccc([C@@H]3[C@@H](CC[C@H](O)c4ccc(F)cc4)C(=O)N3c3ccc(F)cc3)cc2)COC1)C(=O)O [Example 39, (R)-2-(2-(3-(4-((2S,3R)-1-(4-fluorophenyl)-3-((S)-3-(4-fluorophenyl)-3-hydroxypropyl)-4-oxoazetidin-2-yl)phenethyl)oxetan-3-yloxy)acetamido)-3-methylbutanoic acid] | 82% | 0.92 ×10⁻⁶ cm/s | 74% | –
O=C(COC1(CCc2ccc([C@@H]3[C@@H](CC[C@H](O)c4ccc(F)cc4)C(=O)N3c3ccc(F)cc3)cc2)COC1)NCCS(=O)(=O)O [Example 28, 2-(2-(3-(4-((2S,3R)-1-(4-fluorophenyl)-3-((S)-3-(4-fluorophenyl)-3-hydroxypropyl)-4-oxoazetidin-2-yl)phenethyl)oxetan-3-yloxy)acetamido)ethanesulfonic acid] | 63% | – | – | –
O=C1[C@H](CC[C@H](O)c2ccc(F)cc2)[C@@H](c2ccc(O)cc2)N1c1ccc(F)cc1 [Ezetimibe, reference compound] | – | 46 ×10⁻⁶ cm/s | – | 87%
O=C(COC1(CCc2ccc([C@@H]3[C@@H](CC[C@H](O)c4ccc(F)cc4)C(=O)N3c3ccc(F)cc3)cc2)COC1)NC(CO)(CO)CO [Example 46, N-(1,3-dihydroxy-2-(hydroxymethyl)propan-2-yl)-2-(3-(4-((2S,3R)-1-(4-fluorophenyl)-3-((S)-3-(4-fluorophenyl)-3-hydroxypropyl)-4-oxoazetidin-2-yl)phenethyl)oxetan-3-yloxy)acetamide] | – | 1.09 ×10⁻⁶ cm/s | 67% | –
O=C(O)[C@@H]1CCCN1C(=O)COC1(CCc2ccc([C@@H]3[C@@H](CC[C@H](O)c4ccc(F)cc4)C(=O)N3c3ccc(F)cc3)cc2)COC1 [Example 20, (S)-1-(2-(3-(4-((2S,3R)-1-(4-fluorophenyl)-3-((S)-3-(4-fluorophenyl)-3-hydroxypropyl)-4-oxoazetidin-2-yl)phenethyl)oxetan-3-yloxy)acetyl)pyrrolidine-2-carboxylic acid] | 42% | – | – | –
O=C(COC1(CCc2ccc([C@@H]3[C@@H](CC[C@H](O)c4ccc(F)cc4)C(=O)N3c3ccc(F)cc3)cc2)COC1)NC1(C(=O)O)CCC1 [Example 35, 1-(2-(3-(4-((2S,3R)-1-(4-fluorophenyl)-3-((S)-3-(4-fluorophenyl)-3-hydroxypropyl)-4-oxoazetidin-2-yl)phenethyl)oxetan-3-yloxy)acetamido)cyclobutanecarboxylic acid] | – | 0.73 ×10⁻⁶ cm/s | 80% | –
